Assay results from ChEMBL document CHEMBL1201862, “PubChem BioAssay data set” (2004).
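Compound exposure: 48 hours, 5 concentrations, 96-well plates. Here, GI50 denotes the concentration required for 50% inhibition of growth.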 Active and inactive are the calls of the source. Rule as the data show it: active = GI50 up to about 1.1 µM and inactive = higher.

Assays:
Assay in all cases: NCI anticancer screen, dose series, 48 h
SK-MEL-28 = test system: SK-MEL-28
HOP-92 = test system: HOP-92
K562 = test system: K562
SF-539 = test system: SF-539
SW-620 = test system: SW-620
HOP-18 = test system: HOP-18
SNB-19 = test system: SNB-19
SNB-75 = test system: SNB-75
OVCAR-5 = test system: OVCAR-5
OVCAR-3 = test system: OVCAR-3
SF-295 = test system: SF-295
CAKI-1 = test system: CAKI-1
DMS-114 = test system: DMS-114
IGROV-1 = test system: IGROV-1
MOLT-4 = test system: MOLT-4
TK-10 = test system: TK-10
DMS-273 = test system: DMS-273
NCI-H460 = test system: NCI-H460
SK-OV-3 = test system: SK-OV-3
RXF 393 = test system: RXF 393
DLD-1 = test system: DLD-1
NCI-H23 = test system: NCI-H23
HT-29 = test system: HT-29
U-251 = test system: U-251
OVCAR-4 = test system: OVCAR-4
COLO 205 = test system: COLO 205
HCT-15 = test system: HCT-15
UO-31 = test system: UO-31
SK-MEL-5 = test system: SK-MEL-5
M14 = test system: M14
HL-60 = test system: HL-60
KM-20L2 = test system: KM-20L2
RPMI-8226 = test system: RPMI-8226
ACHN = test system: ACHN
HOP-62 = test system: HOP-62
RXF 631 = test system: RXF 631
786-0 = test system: 786-0
UACC-257 = test system: UACC-257
SN12C = test system: SN12C
SNB-78 = test system: SNB-78
UACC-62 = test system: UACC-62
OVCAR-8 = test system: OVCAR-8
Malme-3M = test system: Malme-3M
LOX IMVI = test system: LOX IMVI
EKVX = test system: EKVX
CCRF-CEM = test system: CCRF-CEM
A549 = test system: A549
HCT-116 = test system: HCT-116
M19-MEL = test system: M19-MEL
SK-MEL-2 = test system: SK-MEL-2
SF-268 = test system: SF-268
NCI-H522 = test system: NCI-H522
A498 = test system: A498
SR = test system: SR
NCI-H226 = test system: NCI-H226
KM12 = test system: KM12
HCC 2998 = test system: HCC 2998
LXFL 529 = test system: LXFL 529
XF498 = test system: XF498
MCF7 = test system: MCF7
NCI/ADR-RES = test system: NCI/ADR-RES

O=C(NC(=O)c1cn(CCN2CCN(C(=O)NCCCCCCNC(=O)N3CCN(CCn4cc(C(=O)NC(=O)OCc5ccccc5)c(=O)[nH]c4=O)CC3)CC2)c(=O)[nH]c1=O)OCc1ccccc1
GI50 (SK-MEL-28): > 100 µM (inactive)
GI50 (HOP-92): > 100 µM (inactive)
GI50 (K562): > 100 µM (inactive)
GI50 (SF-539): > 100 µM (inactive)
GI50 (SW-620): > 100 µM (inactive)
GI50 (HOP-18): > 100 µM (inactive)
GI50 (SNB-19): > 100 µM (inactive)
GI50 (SNB-75): 60.8 µM (inactive)
GI50 (OVCAR-5): > 100 µM (inactive)
GI50 (OVCAR-3): > 100 µM (inactive)
GI50 (SF-295): > 100 µM (inactive)
GI50 (CAKI-1): > 100 µM (inactive)
GI50 (DMS-114): > 100 µM (inactive)
GI50 (IGROV-1): > 100 µM (inactive)
GI50 (MOLT-4): > 100 µM (inactive)
GI50 (TK-10): > 100 µM (inactive)
GI50 (DMS-273): > 100 µM (inactive)
GI50 (NCI-H460): > 100 µM (inactive)
GI50 (SK-OV-3): > 100 µM (inactive)
GI50 (RXF 393): > 100 µM (inactive)
GI50 (DLD-1): > 100 µM (inactive)
GI50 (NCI-H23): > 100 µM (inactive)
GI50 (HT-29): > 100 µM (inactive)
GI50 (U-251): > 100 µM (inactive)
GI50 (OVCAR-4): > 100 µM (inactive)
GI50 (COLO 205): > 100 µM (inactive)
GI50 (HCT-15): > 100 µM
GI50 (UO-31): > 100 µM (inactive)
GI50 (SK-MEL-5): > 100 µM (inactive)
GI50 (M14): > 100 µM (inactive)
GI50 (HL-60): > 100 µM (inactive)
GI50 (KM-20L2): > 100 µM (inactive)
GI50 (RPMI-8226): > 100 µM (inactive)
GI50 (ACHN): > 100 µM (inactive)
GI50 (HOP-62): > 100 µM (inactive)
GI50 (RXF 631): > 100 µM (inactive)
GI50 (786-0): > 100 µM (inactive)
GI50 (UACC-257): > 100 µM (inactive)
GI50 (SN12C): > 100 µM (inactive)
GI50 (SNB-78): > 100 µM (inactive)
GI50 (UACC-62): > 100 µM (inactive)
GI50 (OVCAR-8): > 100 µM (inactive)
GI50 (Malme-3M): > 100 µM (inactive)
GI50 (LOX IMVI): > 100 µM (inactive)
GI50 (EKVX): > 100 µM (inactive)
GI50 (CCRF-CEM): > 100 µM (inactive)
GI50 (A549): > 100 µM (inactive)
GI50 (HCT-116): > 100 µM (inactive)
GI50 (M19-MEL): > 100 µM (inactive)

CC[C@H]1CNC(=O)CC1CC(=O)OC (stereo not given in full)
GI50 (SK-MEL-28): > 100 µM (inactive)
GI50 (SK-MEL-2): > 100 µM (inactive)
GI50 (SF-539): > 100 µM (inactive)
GI50 (SW-620): > 100 µM (inactive)
GI50 (SNB-19): > 100 µM (inactive)
GI50 (SNB-75): > 100 µM (inactive)
GI50 (SF-268): > 100 µM (inactive)
GI50 (OVCAR-5): > 100 µM (inactive)
GI50 (SF-295): > 100 µM (inactive)
GI50 (CAKI-1): > 100 µM (inactive)
GI50 (DMS-114): > 100 µM (inactive)
GI50 (IGROV-1): > 100 µM (inactive)
GI50 (MOLT-4): > 100 µM (inactive)
GI50 (TK-10): > 100 µM (inactive)
GI50 (NCI-H522): > 100 µM (inactive)
GI50 (A498): > 100 µM (inactive)
GI50 (SR): > 100 µM (inactive)
GI50 (DMS-273): > 100 µM (inactive)
GI50 (NCI-H460): > 100 µM (inactive)
GI50 (SK-OV-3): > 100 µM (inactive)
GI50 (RXF 393): > 100 µM (inactive)
GI50 (DLD-1): > 100 µM (inactive)
GI50 (NCI-H23): > 100 µM (inactive)
GI50 (HT-29): > 100 µM (inactive)
GI50 (U-251): > 100 µM (inactive)
GI50 (OVCAR-4): > 100 µM (inactive)
GI50 (HCT-15): > 100 µM
GI50 (UO-31): > 100 µM (inactive)
GI50 (SK-MEL-5): > 100 µM (inactive)
GI50 (M14): > 100 µM (inactive)
GI50 (NCI-H226): > 100 µM (inactive)
GI50 (ACHN): > 100 µM (inactive)
GI50 (HOP-62): > 100 µM (inactive)
GI50 (RXF 631): > 100 µM (inactive)
GI50 (786-0): > 100 µM (inactive)
GI50 (UACC-257): > 100 µM (inactive)
GI50 (SN12C): > 100 µM (inactive)
GI50 (SNB-78): > 100 µM (inactive)
GI50 (UACC-62): > 100 µM (inactive)
GI50 (OVCAR-8): > 100 µM (inactive)
GI50 (KM12): > 100 µM (inactive)
GI50 (Malme-3M): > 100 µM (inactive)
GI50 (LOX IMVI): > 100 µM (inactive)
GI50 (HCC 2998): > 100 µM (inactive)
GI50 (EKVX): > 100 µM (inactive)
GI50 (A549): > 100 µM (inactive)
GI50 (HCT-116): > 100 µM (inactive)

Cc1ccc2[nH]c3c(C)c4ccncc4c(C)c3c2c1
GI50 (SK-MEL-28): 1.55 µM (inactive)
GI50 (HOP-92): 0.553 µM (active)
GI50 (K562): 0.519 µM (active)
GI50 (SK-MEL-2): 1.59 µM (inactive)
GI50 (SF-539): 1.33 µM (inactive)
GI50 (SW-620): 0.384 µM (active)
GI50 (HOP-18): 0.252 µM (active)
GI50 (SNB-19): 1.24 µM (inactive)
GI50 (SNB-75): 1.65 µM (inactive)
GI50 (SF-268): 0.733 µM (active)
GI50 (OVCAR-5): 1.37 µM (inactive)
GI50 (OVCAR-3): 1.12 µM (active)
GI50 (SF-295): 1.08 µM (active)
GI50 (CAKI-1): 0.906 µM (active)
GI50 (DMS-114): 0.369 µM (active)
GI50 (IGROV-1): 0.944 µM (active)
GI50 (MOLT-4): 0.231 µM (active)
GI50 (TK-10): 3.81 µM (inactive)
GI50 (NCI-H522): 0.929 µM (active)
GI50 (A498): 1.5 µM (inactive)
GI50 (SR): 0.528 µM (active)
GI50 (DMS-273): 0.155 µM (active)
GI50 (NCI-H460): 0.456 µM (active)
GI50 (SK-OV-3): 2.23 µM (inactive)
GI50 (RXF 393): 0.226 µM (active)
GI50 (DLD-1): 0.333 µM (active)
GI50 (NCI-H23): 1.24 µM (inactive)
GI50 (HT-29): 1.06 µM (active)
GI50 (U-251): 1.16 µM (inactive)
GI50 (OVCAR-4): 1.08 µM (active)
GI50 (COLO 205): 0.873 µM (active)
GI50 (HCT-15): 0.63 µM
GI50 (UO-31): 1.58 µM (inactive)
GI50 (SK-MEL-5): 1.6 µM (inactive)
GI50 (LXFL 529): 1.15 µM (inactive)
GI50 (XF498): 1.6 µM (inactive)
GI50 (M14): 1.67 µM (inactive)
GI50 (HL-60): 1.22 µM (inactive)
GI50 (KM-20L2): 0.815 µM (active)
GI50 (MCF7): 0.908 µM (active)
GI50 (NCI-H226): 1.72 µM (inactive)
GI50 (RPMI-8226): 1.09 µM (active)
GI50 (ACHN): 1.09 µM (active)
GI50 (HOP-62): 1.19 µM (inactive)
GI50 (UACC-257): 1.41 µM (inactive)
GI50 (SN12C): 0.449 µM (active)
GI50 (SNB-78): 1.73 µM (inactive)
GI50 (NCI/ADR-RES): 0.513 µM (active)
GI50 (UACC-62): 1.62 µM (inactive)
GI50 (OVCAR-8): 0.328 µM (active)
GI50 (KM12): 0.614 µM (active)
GI50 (Malme-3M): 1.9 µM (inactive)
GI50 (LOX IMVI): 0.871 µM (active)
GI50 (HCC 2998): 1.48 µM (inactive)
GI50 (EKVX): 1.47 µM (inactive)
GI50 (CCRF-CEM): 0.242 µM (active)
GI50 (A549): 0.966 µM (active)
GI50 (HCT-116): 0.322 µM (active)
GI50 (M19-MEL): 1.36 µM (inactive)
